Inhibition data for 15 compounds are collected here from patent US20240116897A1, “BENZOTHIAZOLE AND BENZIMIDAZOLE DERIVATIVES, PHARMACEUTICALLY ACCEPTABLE SALT THEREOF, PREPARATION METHOD THEREFOR, AND PHARMACEUTICAL COMPOSITION COMPRISING SAME AS ACTIVE INGREDIENT” (KOREA RESEARCH INSTITUTE OF CHEMICAL TECHNOLOGY, priority 2021, published 2024).

The test addresses T1, SIRT7 protein (Homo sapiens, UniProt Q9NRC8).
T1 construct: purchased SignalChem S41-30H
T1 sequence (Q9NRC8 1-400): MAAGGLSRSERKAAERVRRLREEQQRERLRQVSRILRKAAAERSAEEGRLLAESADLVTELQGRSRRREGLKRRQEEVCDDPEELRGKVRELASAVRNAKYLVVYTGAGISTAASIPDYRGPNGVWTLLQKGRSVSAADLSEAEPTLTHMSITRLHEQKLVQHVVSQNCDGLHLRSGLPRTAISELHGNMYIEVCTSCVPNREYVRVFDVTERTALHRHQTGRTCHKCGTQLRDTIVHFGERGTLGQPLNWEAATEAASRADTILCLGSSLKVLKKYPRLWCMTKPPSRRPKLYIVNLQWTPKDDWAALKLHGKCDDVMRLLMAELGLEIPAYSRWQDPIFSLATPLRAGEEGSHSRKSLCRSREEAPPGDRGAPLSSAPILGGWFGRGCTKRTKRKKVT
The test is described as follows: SIRT Glo assay, inhibitory activity against Sirt7. Format: biochemical. The settings on record: 10 μM compound. The method, then: Promega's Cat. No. 6450 SIRT Glo assay kit was used, and as the target SIRT7 protein, No. S41-30H protein of SignalChem's Cat. was used. Prepare the compound by diluting it in SIRT Glo buffer in advance to a concentration twice as thick as the final concentration. For the positive control group of white 384 well plate (Greiner Bioone, white, small volume, Cat. No. 874075), and for compound group, dilute sirt7 protein in SIRT Glo buffer and dispense by 5 μL to contain 20 ng per well. In the background control group, 10 μL of SIRT Glo buffer is dispensed.
After adding 5 μL of SIRT Glo buffer to the positive control group, and 5 μL of the diluted compound to the compound group, react for 30 minutes. After making the substrate provided in the SIRT Glo assay, adding 10 μL each, and reacting for 1 hour, the luciferase activity is measured with a microplate reader (Molecular Device, spectramax i3).
Subtract the luciferase level of the background control group in all wells. The % inhibition of the compound was used to obtain the compound's rate of inhibitory activity against sirt7 in the following:
% inhibition=100−(compound group/positive control group)×100.
With `CCNC(=O)N1CCC(Cc2ccc(C(=O)Nc3nc4ccccc4s3)cc2)CC1` [Compound 1-69, 4-(4-(benzo[d]thiazol-2-ylcarbamoyl)benzyl)-N-ethylpiperidine-1-carboxamide], the inhibition at 10 µM was found to be 100%.
`O=C(Nc1nc2ccccc2s1)c1ccc(CN2C[C@@H]3C[C@H]2CN3)cc1` [Compound 1-71, 4-(((1S,4S)-2,5-diazabicyclo[2.2.1]heptan-2-yl)methyl)-N-(benzo[d]thiazol-2-yl)benzamide] showed an inhibition at 10 µM of 23%.
In the case of `CCNC(=O)N1C[C@@H]2C[C@H]1CN2Cc1ccc(C(=O)Nc2nc3ccccc3s2)cc1` [Compound 1-72, (1S,4S)-5-(4-(benzo[d]thiazol-2-ylcarbamoyl)benzyl)-N-ethyl-2,5-diazabicyclo[2.2.1]heptane-2-carboxamide] it was 40%.
Compound `O=C(Nc1nc2ccccc2s1)c1ccc(CN2C[C@@H]3C[C@H]2CN3C(=O)Nc2ccccc2)cc1` [Compound 1-73, (1S,4S)-5-(4-(benzo[d]thiazol-2-ylcarbamoyl)benzyl)-N-phenyl-2,5-diazabicyclo[2.2.1]heptane-2-carboxamide] yielded an inhibition at 10 µM of 64%.
The value for `CC(C)(C)OC(=O)N1CC=C(c2ccc(C(=O)Nc3nc4ccccc4s3)cc2)CC1` [Compound 1-74, tert-butyl 4-(4-(benzo[d]thiazol-2-ylcarbamoyl)phenyl)-3,6-dihydropyridine-1-(2H)-carboxylate] was 10%.
For the compound `O=C(Nc1nc2ccccc2s1)c1ccc(C2=CCNCC2)cc1` [Compound 1-75, N-(benzo[d]thiazol-2-yl)-4-(1,2,3,6-tetrahydropyridin-4-yl)benzamide], testing at 10 µM gave an inhibition of 26%.
Consider `O=C(Nc1nc2ccccc2s1)c1ccc(C2=CCN(C(=O)Nc3ccc(C(F)(F)F)cc3)CC2)cc1` [Compound 1-76], for which the inhibition at 10 µM is 5%.
As for `O=C(Nc1nc2ccccc2s1)c1ccc(C2CCN(C(=O)Nc3ccc(C(F)(F)F)cc3)CC2)cc1` [Compound 1-77], the inhibition at 10 µM came out at 6%.
`CC(C)(C)OC(=O)N1CCC(=Cc2ccc(C(=O)Nc3nc4ccccc4s3)c(C(F)(F)F)c2)CC1` [Compound 1-78, tert-butyl 4-(4-(benzo[d]thiazol-2-ylcarbamoyl)-3-(trifluoromethyl)benzylidene)piperidine-1-carboxylate] showed an inhibition at 10 µM of 14%.
Compound `O=C(Nc1nc2ccccc2s1)c1ccc(C=C2CCNCC2)cc1C(F)(F)F` [Compound 1-79, N-(benzo[d]thiazol-2-yl)-4-(piperidin-4-ylidenemethyl)-2-(trifluoromethyl)benzamide] returned an inhibition at 10 µM of 71%.
For `CCNC(=O)N1CCC(=Cc2ccc(C(=O)Nc3nc4ccccc4s3)c(C(F)(F)F)c2)CC1` [Compound 1-80, 4-(4-(benzo[d]thiazol-2-ylcarbamoyl)-3-(trifluoromethyl)benzylidene)-N-ethylpiperidine-1-carboxamide], the inhibition at 10 µM was found to be 80%.
In the case of `O=C(Nc1nc2ccccc2s1)c1ccc(C=C2CCN(C(=O)Nc3ccccc3)CC2)cc1C(F)(F)F` [Compound 1-81, 4-(4-(benzo[d]thiazol-2-ylcarbamoyl)-3-(trifluoromethyl)benzylidene)-N-phenylpiperidine-1-carboxamide] it was 32%.
In the case of `CC(C)(C)OC(=O)N1CCC(Cc2ccc(C(=O)Nc3nc4ccccc4s3)c(C(F)(F)F)c2)CC1` [Compound 1-82, tert-butyl 4-(4-(benzo[d]thiazol-2-ylcarbamoyl)-3-(trifluoromethyl)benzyl)piperidine-1-carboxylate] it was 2%; in that of `O=C(Nc1nc2ccccc2s1)c1ccc(CC2CCNCC2)cc1C(F)(F)F` [Compound 1-83, N-(benzo[d]thiazol-2-yl)-4-(piperidin-4-ylmethyl)-2-(trifluoromethyl)benzamide], 42%; in that of `CCNC(=O)N1CCC(Cc2ccc(C(=O)Nc3nc4ccccc4s3)c(C(F)(F)F)c2)CC1` [Compound 1-84, 4-(4-(benzo[d]thiazol-2-ylcarbamoyl)-3-(trifluoromethyl)benzyl)-N-ethylpiperidine-1-carboxamide], 53%.
